Experimental findings from patent publication US10596127B2, “Composition for reducing the frequency of urination, method of making and use thereof” (WELLESLEY PHARMACEUTICALS, LLC, priority 2013, dated 2020) are described below.

The subject of test [1] is IL-6 secretion by normal human bladder smooth muscle cells. Nature of the test: IL-6 ELISA of normal human bladder smooth muscle cell supernatants. The format is cell-based. The following applies: stimulus alone, no analgesic (Carbachol 10^−3 M; LPS 10 μg/ml); unstimulated <5. On the technique in general: ELISA stands for enzyme-linked immunosorbent assay.
The test system of test [2] is TNFα secretion by normal human bladder smooth muscle cells. Nature of the test: TNFα ELISA of normal human bladder smooth muscle cell supernatants. In kind it is cell-based. Particulars: no analgesic. The protocol:
(§1) Culture supernatants were subjected to cytokine-specific ELISA to determine IL-1β, IL-6 and TNF-α responses in cultures of macrophages treated with analgesic, LPS alone or a combination of LPS and analgesic. The assays were performed on Nunc MaxiSorp Immunoplates (Nunc) coated overnight with 100 μl of anti-mouse IL-6, TNF-α mAbs (BD Biosciences) or IL-1β mAb (R&D Systems) in 0.1 M sodium bicarbonate buffer (pH 9.5). After two washes with PBS (200 μl per well), 200 μl of PBS 3% BSA were added in each well (blocking) and the plates incubated for 2 hours at room temperature. Plates were washed again two times by addition of 200 μl per well, 100 μl of cytokine standards and serial dilutions of culture supernatants were added in duplicate and the plates were incubated overnight at 4° C. Finally, the plates were washed twice and incubated with 100 μl of secondary biotinylated anti-mouse IL-6, TNFα mAbs (BD Biosciences) or IL-1β (R&D Systems) followed by peroxidase-labelled goat anti-biotin mAb (Vector Laboratories). The colorimetric reaction was developed by the addition of 2,2′-azino-bis(3)-ethylbenzylthiazoline-6-sulfonic acid (ABTS) substrate and H2O2 (Sigma) and the absorbance measured at 415 nm with a Victor® V multilabel plate reader (PerkinElmer).
(§2) Normal human bladder smooth muscle cells were isolated by enzymatic digestion from macroscopically normal pieces of human bladder. Cells were expended in vitro by culture at 37° C. in a 5% CO2 atmosphere in RPMI 1640 supplemented with 10% fetal bovine serum, 15 mM HEPES, 2 mM L-glutamine, 100 U/ml penicillin, and […] of streptomycin and passage once a week by treatment with trypsin to detach cells followed by reseeding in a new culture flask. The first week of culture, the culture medium was supplemented with 0.5 ng/ml epidermal growth factor, 2 ng/ml fibroblast growth factor, and 5 μg/ml insulin.
(§3) Bladder smooth muscle cells trypsinized and seeded in microculture plates at a cell density of 3×10^4 cells per well in 100 μl were treated with analgesic solutions (50 μl/well) either alone or together carbachol (10-Molar, 50 μl/well), as an example of non-inflammatory stimuli, or lipopolysaccharide (LPS) of Salmonella typhimurium (1 μg/ml, 50 μl/well), as an example of […] stimuli. When no other effectors were added to the cells, 50 μl of RPMI 1640 without fetal bovine serum were added to the wells to adjust the final volume to 200 μl.
(§4) After 24 hours of culture, 150 μl of culture supernatants were collected, spun down for 2 min at 8,000 rpm at 4° C. to remove cells and debris and stored at −70° C. for analysis of Prostaglandin E2 (PGE2) responses by ELISA. Cells were fixed, permeabilized and blocked for detection of COX2 using a fluorogenic substrate. In selected experiment cells were stimulated 12 hours in vitro for analysis of COX2, PGE2 and cytokine responses.
(§5) COX2 and PGE2 responses were analyzed as described in Example 3. Cytokine responses were analyzed as described in Example 2.

In test [3] the test system is expression of co-stimulatory molecules by Raw 264 macrophage cells. As to the kind of experiment: Flow cytometry of co-stimulatory molecules CD40 and CD80 on macrophages treated with analgesic, with or without LPS. In kind it is cell-based, Murine. Particulars: LPS 5 ng/ml alone, no analgesic; negative control 20.6. Here is the method: Murine RAW264.7 or J774 macrophage cells (obtained from ATCC) were used in this study. Cells were maintained in a culture medium containing RPMI 1640 supplemented with 10% fetal bovine serum (FBS), 15 mM HEPES, 2 mM L-glutamine, 100 U/ml penicillin, and 100 μg/ml of streptomycin. Cells were cultured at 37° C. in a 5% CO2 atmosphere and split (passages) once a week.
RAW264.7 macrophage cells were seeded in 96-well plates at a cell density of 1.5×10^5 cells per well in 100 μl of the culture medium. […] Briefly, the analgesics were dissolved in FBS-free culture medium (i.e., RPMI 1640 supplemented with 15 mM HEPES, 2 mM L-glutamine, 100 U/ml penicillin, and 100 μg/ml of streptomycin), and diluted to desired concentrations by serial dilution with the same medium. For cells treated with analgesic in the absence of LPS, 50 μl of analgesic solution and 50 μl of FBS-free culture medium were added to each well. For cells treated with analgesic in the presence of LPS, 50 μl of analgesic solution and 50 μl of LPS (from Salmonella typhimurium) in FBS-free culture medium were added to each well. All conditions were tested in duplicates.
After 24 or 48 hours of culture, 150 μl of culture supernatants were collected, spun down for 2 min at 8,000 rpm at 4° C. to remove cells and debris and stored at −70° C. for analysis of cytokine responses by ELISA. The cells were collected and washed by centrifugation (5 min at 1,500 rpm at 4° C.) in 500 μl of Phosphate buffer (PBS). Half of the cells were then snap frozen in liquid nitrogen and stored at −70° C. The remaining cells were stained with fluorescent monoclonal antibodies and analyzed by flow cytometry.
For flow cytometry analysis, macrophages were diluted in 100 μl of FACS buffer (phosphate buffered saline (PBS) with 2% bovine serum albumin (BSA) and 0.01% NaN3) and stained 30 min at 4° C. by addition of FITC-conjugated anti-CD40, PE-conjugated anti-CD80, PE-conjugated anti-CD86 antibody, anti MHC class II (I-A^d) PE (BD Bioscience). Cells were then washed by centrifugation (5 min at 1,500 rpm at 4° C.) in 300 μl of FACS buffer. After a second wash, cells were re-suspended in 200 μl of FACS buffer and the percentage of cells expressing a given marker (single positive), or a combination of markers (double positive) were analyzed with the aid of an Accuri C6 flow cytometer (BD Biosciences).
For orientation: A flow cytometer gives signals particle by particle.

In test [4] the test system is PGE2 secretion by normal human bladder smooth muscle cells. Nature of the test: PGE2 ELISA of normal human bladder smooth muscle cell supernatants. In kind it is cell-based. The protocol:
Prostaglandin E2 responses were analyzed by a sequential competitive ELISA (R&D Systems). More specifically, culture supernatants or PGE2 standards were added to the wells of a 96-well polystyrene microplate coated with a goat anti-mouse polyclonal antibody. After one hour incubation on a microplate shaker, an HRP-conjugated PGE2 was added and plates incubated for an additional two hours at room temperature. The plates were then washed and HRP substrate solution added to each well. The color was allowed to develop for 30 min and the reaction stopped by addition sulfuric acid before reading the plate at 450 nm with wavelength correction at 570 nm. Results are expressed as mean pg/ml of PGE2.
as §2
(§6) […] When no other effectors were added to the cells, 50 μl of RPMI 1640 without fetal bovine serum were added to the wells to adjust the final volume to 200 μl.
as §4, §5

The test system of test [5] is IL-6 secretion by normal human bladder smooth muscle cells. Nature of the test: IL-6 ELISA of normal human bladder smooth muscle cell supernatants. In kind it is cell-based. The following applies: no analgesic. The protocol: as §1, §2, §3, §4, §5
In test [6] the test system is COX2 expression by normal human bladder smooth muscle cells. As to the kind of experiment: Cell-based ELISA of total COX2 in normal human bladder smooth muscle cells. The protocol:
COX2 responses were analyzed by a Cell-Based ELISA using Human/mouse total COX2 immunoassay (R&D Systems), following the instructions of the manufacturer. Briefly, after cells fixation and permeabilization, a mouse anti-total COX2 and a rabbit anti-total GAPDH were added to the wells of the clear-bottom black 96-well cell culture microculture plates. After incubation and washes, an HRP-conjugated anti-mouse IgG and an AP-conjugated anti-rabbit IgG were added to the wells. Following another incubation and set of washes, the HRP- and AP-fluorogenic substrates were added. Finally, a Victor® V multilabel plate reader (PerkinElmer) was used to read the fluorescence emitted at 600 nm (COX2 fluorescence) and 450 nm (GAPDH fluorescence). Results are expressed as relative levels of total COX2 as determined by relative fluorescence unit (RFUs) and normalized to the housekeeping protein GAPDH.
as §2, §6, §4, §5

In test [7] the test system is TNFα secretion by normal human bladder smooth muscle cells. Nature of the test: TNFα ELISA of normal human bladder smooth muscle cell supernatants. The format is cell-based. The following applies: stimulus alone, no analgesic (Carbachol 10^−3 M; LPS 10 μg/ml); unstimulated <5.
Where [8] appears, read: stimulus alone, no analgesic (Carbachol 10^−3 M; LPS 10 μg/ml), unstimulated <20.5.

lipopolysaccharide [LPS]: in test [1], the “IL-6 (pg/ml) Subject 1” value was 4838 pg/mL and the “IL-6 (pg/ml) Subject 2” value was found to be 4383 pg/mL. In addition, the “TNFα responses to stimulus alone” value in test [2] is “massive induction”. Further, the “% Positive CD40+CD80+” value in test [3] was 77.8%. In addition, the “PGE2 production in response to stimulus alone” value in test [4] (no analgesic) is “induced production of PGE2”. Besides, in test [4] (setting [8]), the “PGE2 levels (pg/ml) Subject 1” value was 1125 pg/mL and the “PGE2 levels (pg/ml) Subject 2” value stood at 998 pg/mL. For the same substance, in test [5], the “IL-6 responses to stimulus alone” value is reported as “massive induction”. Also, the “COX2 responses to stimulus alone” value in test [6] (no analgesic) is “higher levels of COX2 responses”. Also, in test [6] (stimulus alone, no analgesic (Carbachol 10^−3 M; LPS 10 μg/ml), unstimulated 199), the “Total COX2 levels (Normalized RFUs) subject 2” value amounted to 633 Normalized RFUs. Further, the “Total COX2 levels (Normalized RFUs) subject 1” value in test [6] (stimulus alone, no analgesic (Carbachol 10^−3 M; LPS 10 μg/ml), unstimulated 230) turned out to be 672 Normalized RFUs. Moreover, in test [7], the “TNFα (pg/ml) Subject 1” value stood at 5725 pg/mL and the “TNFα (pg/ml) Subject 2” value is 4107 pg/mL.
